# How the values were obtained:
# Rattus norvegicus = experiment: Antiinflammatory activity against po dosed carrageenan-induced rat foot paw edema after 3 hrs; format: functional
# [1] = Effect on nitric oxide release in phosphate buffer at pH 7.4 after 1.5 hrs; format: physicochemical; settings: pH 7.4, 1.5 h
# [2] = Effect on nitric oxide release in phosphate buffer at pH 7.4 after 1.5 hrs in presence of rat serum; format: ADME; settings: pH 7.4, 1.5 h
# [3] = target: T1, Prostaglandin G/H synthase 1 (Ovis aries, UniProt P05979)
# T1 sequence (P05979 whole entry): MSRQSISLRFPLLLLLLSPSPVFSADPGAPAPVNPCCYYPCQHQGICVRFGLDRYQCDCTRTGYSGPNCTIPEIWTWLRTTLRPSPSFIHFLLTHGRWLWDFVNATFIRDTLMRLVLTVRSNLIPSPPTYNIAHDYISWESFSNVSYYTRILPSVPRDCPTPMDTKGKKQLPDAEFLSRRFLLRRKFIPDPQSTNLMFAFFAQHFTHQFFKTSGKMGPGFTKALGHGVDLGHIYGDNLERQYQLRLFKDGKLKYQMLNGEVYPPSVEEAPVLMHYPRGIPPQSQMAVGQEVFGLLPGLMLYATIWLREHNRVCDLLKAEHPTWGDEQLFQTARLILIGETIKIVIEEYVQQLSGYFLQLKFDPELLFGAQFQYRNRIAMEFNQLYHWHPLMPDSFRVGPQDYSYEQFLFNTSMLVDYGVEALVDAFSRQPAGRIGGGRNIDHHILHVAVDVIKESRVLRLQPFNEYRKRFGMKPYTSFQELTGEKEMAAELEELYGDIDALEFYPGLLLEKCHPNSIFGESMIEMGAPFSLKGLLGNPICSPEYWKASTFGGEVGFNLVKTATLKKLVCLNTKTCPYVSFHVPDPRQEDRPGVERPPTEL
# Description: Inhibition of ovine COX1 by enzyme immuno assay
Activity [1] [%],Activity [2] [%],IC50 [3] [µM],SMILES,ED50 (Rattus norvegicus) [µmol/kg]
8.2,76,> 100,CC(=O)OCO/N=[N+](\[O-])N1CCC[C@H]1C(=O)OCc1ccc(-c2cc(C(F)(F)F)nn2-c2ccc(S(N)(=O)=O)cc2)cc1,94.3
–,–,–,CC(C)Cc1ccc(C(C)C(=O)O)cc1 (stereo not drawn) [IBUPROFEN],327
–,–,8.6,CS(=O)(=O)c1ccc(-n2nc(C(F)(F)F)cc2-c2ccc(CO)cc2)cc1,112
6.1,77,–,CC(=O)OCO/N=[N+](\[O-])N1CCC[C@H]1C(=O)OCc1ccc(-c2cc(C(F)(F)F)nn2-c2ccc(S(C)(=O)=O)cc2)cc1,76.7
–,–,–,NS(=O)(=O)c1ccc(-n2nc(C(F)(F)F)cc2-c2ccc(CO)cc2)cc1 [PRIMARY ALCOHOL METABOLITE OF CELECOXIB],77.1
–,–,–,CC(=O)Oc1ccccc1C(=O)O [ASPIRIN],710
–,–,–,Cc1ccc(-c2cc(C(F)(F)F)nn2-c2ccc(S(N)(=O)=O)cc2)cc1 [CELECOXIB],30.9

# From ChEMBL document CHEMBL1152264, “Diazen-1-ium-1,2-diolated nitric oxide donor ester prodrugs of 5-(4-hydroxymethylphenyl)-1-(4-aminosulfonylphenyl)-3-trifluoromethyl-1H-pyrazole and its methanesulfonyl analog: synthesis, biological evaluation and nitric oxide release studies” (Bioorg Med Chem, 2008)
